From publication PMC7562719, “Discovery of a CNS penetrant small molecule SMN2 splicing modulator with improved tolerability for spinal muscular atrophy” (Scientific Reports, 2020)
Where two headings read alike, the source gives them in different places.

How the values were obtained:
HTT mRNA = test: qPCR of HTT transcripts in GM03813 fibroblasts; format: cell-based, human; conditions: for Selectivity HTT /FL-SMN2: EC50 of HTT divided by EC1.5× of FL-SMN2; for EC50: Homo sapiens, Fibroblast, GM03813 fibroblasts, 24 h, 50% total HTT mRNA reduction, 95% CI in brackets
Protocol: GM03813 fibroblasts, GM24468-derived MNs, NRK-49F, MDCK, CV-1, or NCMDF cells were plated at a density of 0.5 or 1.5 × 10^4, 4 × 10^4, 5 × 10^3, 5 × 10^3, 8 × 10^3, or 6 × 10^3 cells/well on 96-well plates, respectively. After approximately 6 h, the medium was added with the same volume of culture medium containing each compound at the concentration of 0.06, 0.2, 0.6, 0.2, and 6 µM. The final concentration of DMSO was adjusted to 0.1% in culture condition.
All cells were treated with above compounds for 24 h and washed once with Dulbecco’s Phosphate-Buffered Saline without Ca and Mg [D-PBS (–)] (Wako or Nakarai Tesque). In case of using GM03813 or GM24468-derived MNs, cell lysis and reverse transcription were carried out using SuperPrep Cell Lysis & RT Kit for qPCR in accordance with manufacturer’s recommendations (Toyobo, Japan). qPCR was performed using THUNDERBIRD Probe qPCR Mix (Toyobo). The final concentrations of primers and probes were adjusted to 0.4 µM and 0.15 µM, respectively (Supplementary Table 1). Cycle conditions were as follows; 95 °C for 1 min; followed by 40 cycles of denaturation at 95 °C for 15 s; annealing and elongation at 60 °C for 1 min in the ViiA7 RT-PCR system (Thermo Fisher Scientific). The copy numbers of each target were normalized to those of GAPDH.
In order to elucidate splicing pattern of cryptic GALC and HTT transcripts, GM03813 cells were seeded at 5 or 15 × 10^3 cells/well in 96-well plates and incubated with TEC-1 or SMN-C3 (0.03, 0.1, 0.3, 0.1, 1 or 3 µM) for 6 h under final concentration of 200 µg/ml CHX. For FOXM1, GM03813 fibroblasts were plated at 1.5 × 10^4 cells/well in 96-well plate and incubated with TEC-1, SMN-C3 or risdiplam (0.03, 0.1, 0.3 and 1 µM) for 24 h.
GM03813 fibroblasts and GM24468-derived MNs were seeded at 1.5 × 10^4 and 4 × 10^4 cells/well in 96-well plates and were treated with TEC-1 or SMN-C3 for 72 h at the concentration of 0.01, 0.03, 0.1, 0.3, 1, or 3 µM. After 72 h exposure of compound, GM24468 derived MNs and GM03813 fibroblasts were washed once with D-PBS (-), lysed with RIPA buffer (Wako) containing cOmplete (Sigma-Aldrich) and PhosSTOP (Sigma-Aldrich). The lysates were spun at 15,000 rpm for 15 min at 4 °C, and the supernatants were collected. The protein concentration was quantified with BCA kit (Wako). The lysates, adjusted to have the same protein amount, were mixed with NuPAGE LDS sample buffer containing DTT and heated at 95 °C for 5 min. Except for HTT detection, each sample (2 µg total protein/lane) was loaded Perfect NT Gel 7.5–15% gel (DRC, Japan) and run at 150 V for 60–70 min with Tris/glycine/SDS running buffer (BIO-RAD, USA). The proteins were transferred from the gel to Immobilon-P PVDF Membrane (Millipore, USA) with a transfer solution comprising 10% methanol and 1 × Novex Tris-glycine transfer buffer at 25 V for 180–240 min using Criterion blotter (BIO-RAD). In the case of HTT detection, each sample (2 µg total protein/lane) was loaded to Perfect NT Gel 7.5–15% gel and run at 150 V for 60–70 min with NuPAGE Tris–Acetate SDS Running Buffer. The proteins were transferred with a transfer solution comprising 10% methanol and 1 × Novex Tris-glycine transfer buffer at 25 V for 960 min using Criterion blotter. The membranes were blocked with Pierce Protein free T20 blocking reagent for 1 h and subsequently incubated with primary antibodies diluted with Can Get Signal Solution 1 (Toyobo) at room temperature for 1 h. Anti-SMN monoclonal antibody (MoAb)[15] […]

[1] = pharmacokinetic study in adult wild type FVB mice, oral; format: in vivo; conditions: for Kp / Cmax / MRT / Tmax: male, mouse
Protocol: TEC-1 was administered at doses of 2, 6, and 20 mg/kg for oral (suspended in 0.5% methyl cellulose aqueous solution) to male FVB mice (aged 8 weeks, 3 mice per a time point). After 0.5–120 h administration, blood and brain samples were collected. Blood samples with heparin were centrifuged for plasma collection. Brain samples were homogenized in saline 20% (w/v). The samples were deproteinized with acetonitrile and following by centrifugation, and the supernatants were analyzed by LC/MS/MS to obtain TEC-1 concentrations of the plasma and brain.

[2] = brain, 2 mg/kg oral single, adult FVB mice
[3] = brain, 6 mg/kg oral single, adult FVB mice
[4] = brain, 20 mg/kg oral single, adult FVB mice
[5] = plasma, 2 mg/kg oral single, adult FVB mice
[6] = plasma, 6 mg/kg oral single, adult FVB mice
[7] = plasma, 20 mg/kg oral single, adult FVB mice

## CCN1CCC(c2cc(C)c3nc(-c4cc5c(C)nc(C)cn5n4)cc(=O)n3c2)CC1 [SMN-C3, reference compound]
HTT mRNA
  Selectivity HTT /FL-SMN2: 4
  EC50: 547 nM

## Cc1cn2nc(-c3nc4ccc(N5CCN(C)CC5)cc4c(=O)[nH]3)cc2c(C)n1 [TEC-1, 2-(4,6-dimethylpyrazolo[1,5-a]pyrazin-2-yl)-6-(4-methylpiperazin-1-yl)quinazolin-4(3H)-one]
HTT mRNA
  Selectivity HTT /FL-SMN2: > 61
  EC50: > 3000 nM
HTT mRNA; GM03813 cells
  inclusion of the HTT cryptic exon or reduction of HTT at the mRNA and full-length protein levels: did not substantially impact
[1]; [2]
  AUC0–24 h: 2234.1 ng･h/g
  AUC0–120 h: 2433.7 ng･h/g
  Cmax: 168 ng/g
  MRT: 10.7 h
  Tmax: 1 h
[1]; [3]
  AUC0–24 h: 3956.7 ng･h/g
  AUC0–120 h: 8011.1 ng･h/g
  Cmax: 195 ng/g
  MRT: 29.5 h
  Tmax: 7 h
[1]; [4]
  AUC0–24 h: 6322.1 ng･h/g
  AUC0–120 h: 29429.3 ng･h/g
  Cmax: 360 ng/g
  MRT: 54.6 h
  Tmax: 32 h
[1]; brain and plasma, other: intraperitoneal (juvenile) and oral (adult), juvenile (intraperitoneal) and adult (oral) FVB mice, read-out: Kp values (ratio of the compound in the brain and plasma)
  Kp: > 1
[1]; brain/plasma, 2 mg/kg oral single, adult FVB mice, read-out: Kp (AUC0–120h ratio)
  Kp: 1.2
[1]; brain/plasma, 6 mg/kg oral single, adult FVB mice, read-out: Kp (AUC0–120h ratio)
  Kp: 1.2
[1]; brain/plasma, 20 mg/kg oral single, adult FVB mice, read-out: Kp (AUC0–120h ratio)
  Kp: 1.8
[1]; [5]
  MRT: 10.7 h
  Tmax: 3 h
  AUC0–24 h: 1906.7 ng･h/mL
  AUC0–120 h: 2095.9 ng･h/mL
[1]; plasma, 2 mg/kg oral single, adult FVB mice, mean, n = 3
  Cmax: 136 ng/mL
[1]; [6]
  Cmax: 157 ng/mL
  MRT: 33.1 h
  Tmax: 3 h
  AUC0–24 h: 3100.3 ng･h/mL
  AUC0–120 h: 6647.9 ng･h/mL
[1]; [7]
  Cmax: 222 ng/mL
  MRT: 48.5 h
  Tmax: 16 h
  AUC0–24 h: 4950.5 ng･h/mL
  AUC0–120 h: 16350.5 ng･h/mL
